Results on five compounds are retold here after US6521814B1, “Use of ligands for treatment of diseases responsive to retinoids” (Institut National de la Santa et de la Recherche Medicale, priority 1997, dated 2003).

The subject of assay [1] is RARγ−/− F9 cells. The assay is described as follows: Apoptosis of F9 cells (Hoechst 33258 staining, FACS). Format: cell-based, murine. Particulars: 6 d. The procedure: (§1) Apoptosis was analyzed by both Hoechst staining of nuclei and FACS® analysis, as previously described (Clifford, J., et al., EMBO J. 15:4142-4155 (1996)).
Assay [2] deals with WT F9 cells. The assay is described as above. Particulars: 6 d. It counts as cell-based, murine. The procedure:
as §1

The test system of assay [3] is RARα−/− F9 cells. The description is as above. Format: cell-based, murine. Particulars: 6 d. On the set-up: key: (−): no visible effect. The protocol:
as §1

Assay [4] relates to RXRα−/− F9 cells. The assay is described as follows: Proliferation of F9 cells in monolayer culture (cell counting, [3H]thymidine incorporation, cell cycle FACS). The settings on record: 6 d. Format: cell-based, murine. For orientation: Incorporation of labelled thymidine or its analogues reports DNA synthesis.
In assay [5] the test system is RARγ−/− F9 cells. The description is as above. It counts as cell-based, murine. The settings on record: 6 d. The procedure:
(§2) Cells were plated in triplicate 3-cm culture wells (5×10^2 cells per well), and cell counting experiments were performed as previously described (Clifford, J., et al., EMBO J. 15:4142-4155 (1996)). [^3H]Thymidine incorporation assays were performed essentially as described (Clifford, J., et al., EMBO J. 15:4142-4155 (1996)), with the following modifications. […] The cell cycle profile of WT and mutant cells was determined as previously described (Clifford, J., et al. EMBO J. 15:4142-4155 (1996)).

Assay [6] concerns WT F9 cells. The description is as above. Format: cell-based, murine. The settings on record: 6 d. The procedure: as §2
Assay [7] relates to RARα−/− F9 cells. The assay is described as above. Format: cell-based, murine. Particulars: 6 d. The procedure:
as §2

Assay [8] concerns WT F9 cells. The assay is described as follows: Morphological differentiation of F9 cell aggregates into visceral endoderm (VE)-like cells (morphology, RT-PCR of markers). It counts as cell-based, murine. The settings on record: WT, 10 d. On the set-up: key to proportion of outer layer of cells displaying VE morphology: +++: more than 80%; ++: 50-80%; +: 10-50%; ±: not more than 10%; (−): no visible effect. An excerpt: (§3) Similarly, after 10 d of treatment, >80% of the outer layer of RARα^−/− and RXRα^−/−/RARα^−/− cell aggregates differentiated into VE-like cells, which were indistinguishable from those of WT and RXRα^−/− cells (FIG. 23A, compare f with panels b and d; and Table 9). […] To exclude the possibility that this very poor differentiation of the RXRα^−/−/RARγ^−/− cells could be due to some clonal variation, rather than the presence of the RXRα-null mutation in the RARγ-null background, we expressed the RXRα cDNA in RXRα^−/−/RARγ^−/− cells.
(§4) F9 cells were cultured and induced to differentiate into primitive, parietal and visceral endoderm-like cells as previously described (Boylan, J., et al., Proc. Natl. Acad. Sci. USA 90:9601-9605 (1993); Clifford, J., et al., EMBO J. 15:4142-4155 (1996)).
(§5) RNA preparation, RT-PCR, and Southern blotting were performed as previously described (Bouillet, P., et al., Dev. Biol. 170:420-433 (1995); Roy, B., et al., Mol. Cell. Biol. 15:6481-6487 (1995)). The PCR primers and end-labeled oligonucleotide probes for collagen IVα1, laminin B1, α-fetoprotein (AFP), and 36B4, were described previously (Clifford, J., et al ., EMBO J. 15:4142-4155 (1996)). Transcript levels were quantified using a BAS 2000 bioimaging analyzer (Fuji Ltd., Tokyo, Japan), and were normalized to the corresponding 36B4 signals.

In assay [9] the test system is RARα−/− F9 cells. The description is as above. On the set-up: key to proportion of outer layer of cells displaying VE morphology: +++: more than 80%; ++: 50-80%; +: 10-50%; ±: not more than 10%; (−): no visible effect. It counts as cell-based, murine. Particulars: 10 d.
Excerpt: as §3, §4, §5

For a further assay, the system named is RXRα−/−/RARγ−/− F9 cells. The assay is described as follows: Proliferation of F9 cells in monolayer culture (cell counting, [3H]thymidine incorporation, cell cycle FACS). Format: cell-based, murine. Particulars: 6 d.
The test system of assay [10] is RARγ−/− F9 cells. The assay is described as follows: Morphological differentiation of F9 cell aggregates into visceral endoderm (VE)-like cells (morphology, RT-PCR of markers). On the set-up: key to proportion of outer layer of cells displaying VE morphology: +++: more than 80%; ++: 50-80%; +: 10-50%; ±: not more than 10%; (−): no visible effect. It counts as cell-based, murine. The settings on record: RARγ−/−, 10 d. The procedure:
as §4, §5

Assay [11] has as its system RXRα−/−/RARα−/− F9 cells. Nature of the assay: Proliferation of F9 cells in monolayer culture (cell counting, [3H]thymidine incorporation, cell cycle FACS). It counts as cell-based, murine. Particulars: 6 d.
Assay [12] deals with RXRα−/−/RARα−/− F9 cells. Nature of the assay: Apoptosis of F9 cells (Hoechst 33258 staining, FACS). Format: cell-based, murine. Particulars: 100 nM, 6 d.
The test system of assay [13] is RXRα−/− F9 cells. The description is as above. It counts as cell-based, murine. The settings on record: 100 nM, 6 d.
The next assay has as its target mouse RXRγ (mouse) (UniProt P28705). The assay is described as follows: cell-based or functional assay.

Chain of mouse RXRγ (mouse) (P28705 whole entry): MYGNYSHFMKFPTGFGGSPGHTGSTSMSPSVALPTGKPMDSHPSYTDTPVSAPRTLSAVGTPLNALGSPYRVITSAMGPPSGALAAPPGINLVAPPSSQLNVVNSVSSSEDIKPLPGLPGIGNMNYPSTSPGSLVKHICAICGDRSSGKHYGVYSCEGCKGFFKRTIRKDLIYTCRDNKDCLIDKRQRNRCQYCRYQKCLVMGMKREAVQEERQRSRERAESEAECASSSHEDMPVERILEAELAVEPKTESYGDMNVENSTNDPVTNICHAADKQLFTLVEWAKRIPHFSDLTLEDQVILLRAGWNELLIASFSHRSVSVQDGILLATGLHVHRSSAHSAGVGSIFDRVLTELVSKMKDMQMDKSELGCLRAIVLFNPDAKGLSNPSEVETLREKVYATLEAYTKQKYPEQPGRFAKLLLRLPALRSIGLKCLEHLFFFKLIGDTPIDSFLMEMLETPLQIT

As to `CC1(C)C(=O)C(C)(C)c2cc(C(=O)Nc3ccc(C(=O)O)cc3)ccc21` [RARα agonist], the “proportion of apoptotic nuclei and subcellular fragments (Hoechst 33258)” value (from here on “proportion … (Hoechst 33258)”) in the assay on RARγ−/− F9 cells [1] (100 nM), with WT F9 cells [2] (100 nM) and with RARα−/− F9 cells [3] (100 nM) was “(−)” throughout. The “number of cells in percent relative to cells grown in 0.1% ethanol” value in the assay on RXRα−/− F9 cells [4] (10 nM), in the assay on RXRα−/− F9 cells [4] (100 nM), in the assay with RARγ−/− F9 cells [5] (10 nM), in the assay with RARγ−/− F9 cells [5] (100 nM), in the assay on WT F9 cells [6] (10 nM) and in the assay on WT F9 cells [6] (100 nM) was 100% throughout. The “number of cells in percent relative to cells grown in 0.1% ethanol” value with RARα−/− F9 cells [7] (10 nM) is listed as 100%; in the assay with RARα−/− F9 cells [7] (100 nM), 100%; in the assay with RXRα−/−/RARγ−/− F9 cells (10 nM), 124%; in the assay with RXRα−/−/RARγ−/− F9 cells (100 nM), 143%; in the assay on RXRα−/−/RARα−/− F9 cells [11] (10 nM), 100%; in the assay on RXRα−/−/RARα−/− F9 cells [11] (100 nM) it was 100%. In addition, the “proportion of outer layer of cells displaying VE morphology” value was “(−)” in the assay on WT F9 cells [8] (10 nM); “(−)” with WT F9 cells [8] (100 nM); “(−)” in the assay on RARα−/− F9 cells [9] (100 nM); “(−)” with RARγ−/− F9 cells [10] (10 nM); “± (not more than 10%)” with RARγ−/− F9 cells [10] (100 nM).
For `CC1(C)CC=C(c2ccccc2)c2cc(/C=C/c3ccc(C(=O)O)cc3)ccc21` [RARβ agonist], the “proportion … (Hoechst 33258)” value in the assay on RARγ−/− F9 cells [1] (500 nM), with WT F9 cells [2] (500 nM) and in the assay with RARα−/− F9 cells [3] (500 nM) was “(−)” in each case. For the same compound, the “number of cells in percent relative to cells grown in 0.1% ethanol” value in the assay with RXRα−/− F9 cells [4] (50 nM), in the assay on RXRα−/− F9 cells [4] (500 nM), with RARγ−/− F9 cells [5] (50 nM), in the assay on RARγ−/− F9 cells [5] (500 nM), in the assay with WT F9 cells [6] (50 nM) and in the assay with WT F9 cells [6] (500 nM) was 100% each time. The “number of cells in percent relative to cells grown in 0.1% ethanol” value in the assay on RARα−/− F9 cells [7] (500 nM) was determined as 100%; in the assay with RXRα−/−/RARγ−/− F9 cells (500 nM), 120%; with RXRα−/−/RARα−/− F9 cells [11] (500 nM) it was 100%. In addition, the “proportion of outer layer of cells displaying VE morphology” value in the assay with WT F9 cells [8] (500 nM) is “(−)”; in the assay on RARα−/− F9 cells [9] (500 nM), “(−)”; in the assay on RARγ−/− F9 cells [10] (500 nM) it was “± (not more than 10%)”.
Take `CC1(C)CCC(C)(C)c2cc(NC(=O)c3ccc(C(=O)O)cc3)ccc21` [panRAR agonist]: the “proportion … (Hoechst 33258)” value in the assay with RARγ−/− F9 cells [1] (100 nM) is given as “± (<1%)”; in the assay with WT F9 cells [2] (100 nM) it was “+ (>1-10%)”; in the assay on RXRα−/−/RARα−/− F9 cells [12], “±* (asterisks less than that in combination with 1 μM panRXR agonist)”; in the assay on RXRα−/− F9 cells [13], “±* (asterisks less than that in combination with 1 μM panRXR agonist)”; in the assay on RARα−/− F9 cells [3] (100 nM) it was “+ (>1-10%)”.
As for `CC1(C)CCC(C)(C)c2cc(C3(c4ccc(C(=O)O)cc4)OCCO3)ccc21` [panRXR agonist], the “proportion … (Hoechst 33258)” value in the assay on RARγ−/− F9 cells [1] (1 μM), with WT F9 cells [2] (1 μM) and in the assay with RARα−/− F9 cells [3] (1 μM) was “(−)” each time. Besides, the “number of cells in percent relative to cells grown in 0.1% ethanol” value with RXRα−/− F9 cells [4] (1 μM), in the assay on RARγ−/− F9 cells [5] (1 μM), in the assay with WT F9 cells [6] (1 μM), in the assay with RARα−/− F9 cells [7] (1 μM), in the assay on RXRα−/−/RARγ−/− F9 cells (1 μM) and with RXRα−/−/RARα−/− F9 cells [11] (1 μM) was 100% in each case. In addition, the “proportion of outer layer of cells displaying VE morphology” value with WT F9 cells [8] (1 μM), in the assay on RARα−/− F9 cells [9] (1 μM) and in the assay on RARγ−/− F9 cells [10] (1 μM) was “(−)” throughout.
“mouse RARα (from UniProt P11416 1-462) (receptor)”: in the assay with mouse RXRγ (mouse), the CAT activity of the C1 reporter (D2R promoter) in COS-1 cells cotransfected with RARα and RXRγ, in the presence of t-RA and 9-cis-RA is 45 fold; the CAT activity of the C2 reporter in COS-1 cells coexpressing RARα/RXRγ, in the presence of t-RA and 9-cis-RA was found to be 66 fold; the CAT activity of the C3 reporter (D2R RARE upstream of the TK promoter) in COS-1 cells cotransfected with RARα/RXRγ, in the presence of t-RA and 9-cis-RA came to 11 fold.
